Data reported in patent publication US8828993B2, “Psychotropic agents having glutamate NMDA activity” (Ramot At Tel-Aviv University Ltd., priority 2006, dated 2014).
Structures can show the parent of a compound that is named as a salt.

Experiments:
Assay type in all cases: in vivo
[1] = system: MK-801-induced hyperactivity in mice; assay: MK-801-induced hyperactivity in open field
Method: MK-801-Induced Stereotype Behavior in Rats (in Open Field)—
MK-801 is an analogue of PCP which inhibits NMDA receptors and elicits hyperlocomotion and stereotypic behavior in rodents and is used as an animal model of schizophrenia (Stephen, et al., Topiramate antagonizes MK-801 in an animal model of schizophrenia, Eur. J. Pharmacol. 449, 2002, 121-5). For experimentation, naïve Balb/c mice were used. MK-801 (0.15 mg/kg i.p) was administered 40 minutes after Compound 1 (or any one of the other compounds of the invention) or a vehicle, and 20 minutes prior to placing the mouse in an open field.
Animals placed in the open field were followed for 60 minutes and their distance moved, velocity, duration of immobility, and number of rearing events were registered using the Noldus system.
As stated above, MK-801 inhibits NMDA receptors and elicits hyperlocomotion. Therefore, where an antagonism of the hyperactivity-induced by the MK-801 is observed upon administration of a compound of the invention, it is an indication as to the positive modulation of the NMDA activity. In other words, such a compound may be considered as useful in the treatment of schizophrenia.
The effect of Compound 6 on the distance moved in Balb/c mice exposed to MK-801 ([…]) i.p. and to Compound 6 (up to 12.5 mg/kg, i.p.) administered 1 hr prior to MK-801 was also tested.
As stated above, MK-801 (an NMDA receptor antagonist) is a widely accepted animal model for schizophrenia. The experiment was conducted with Balb/c male mice (Harlan Il), 6 per group. Compound 1 (50 mg/kg) was administered i.p. (1 hr before experimentation), to mice alone or combined with MK-801 (0.15 mg/kg, i.p.) administered 20 minutes prior to placing the mice individually in an open field for 60 minutes. The hyper-active behavior expressed by hyperlocomotion, velocity, strong mobility, number of rearing was evaluated using the Noldus system, each point represents the mean+/−6 determinations.

mice [2] = assay: Catalepsy bar test; details: doses of up to 50 mg/kg i.p., scored 90 minutes later
Method: Catalepsy in mice and rats serves as a behavioral model for the manifestation of the extrapyramidal adverse effects of neuroleptics (Worm, et al., Dopamine-like activities of an aminopyridazine derivative, CM 30366. A behavioral study, Naunyn-Schmeideberg's Arch Pharmacol, 334, 246-52, 1986).
Catalepsy in mice is evaluated using a bar test. The mice were placed in the middle of a steel rod situated between two platforms with their front paws resting on the bar. Animals were injected i.p. with a vehicle or Compound 1. Animals were scored 90 minutes later for the time it took each animal to reach the platform.

[3] = system: amphetamine-induced hyperactivity in mice; assay: Amphetamine-induced hyperactivity and stereotypic behavior; details: ICR male mice
Description: The amphetamine-induced hyperactivity and motility is one of the most popular animal models for schizophrenia (Pouzet B, et al., Effects of the 5-HT(7) receptor antagonist SB-258741 in animal models for schizophrenia. Pharmacol Biochem Behav April; 71(4):655-665, 2002 and Geyer, et al., Animal behavior models of the mechanisms underlying antipsychotic atypicalicity, Progress in Neuro-Psychopharmacol & Biological Psychiatry, 27, 1071-79, 2003). Amphetamines are known to augment dopaminergic and noradrenergic neurotransmission by inducing catecholamine release and preventing catecholamine reuptake
The experiment was conducted with ICR male mice placed in individual barrels. […] The locomotor activity, number of rearings and head movements was recorded every 15 minutes for 2 h.
As stated above, the amphetamine-induced hyperactivity and motility is one of the most popular animal models for schizophrenia. The experiment was conducted with ICR male mice placed in individual barrels. Compound 1 (20 mg/kg) was administered p.o to the mice 1 hr prior to i.p. administration of amphetamine (2. mg/kg). The hyper-active behavior expressed by the number of climbings and rearings and the stereotypic behavior expressed by the number of head movements was recorded every 15 minutes over a period of 1 h.
The effect of Compound 3 (12.5, 25 and 50 mg/kg, i.p.) on amphetamine-induced hyperactivity in Balb/c mice was also examined. Animals (6 per group) were injected with Compound 3 (12.5, 25 and 50 mg/kg) and 30 minutes later received amphetamine (2 mg/kg ip). After 30 minutes, animals were exposed to an open field test for a period of 20 minutes.

ICR male mice = assay: Subchronic toxicity
Method: Subchronic toxicity was tested in ICR male mice. Animals (5 per group) received Compound 1 daily (10 and 20 mg/kg p.o). Animals were followed up for 7 days; weight, food intake and water intake were registered.

mice [4] = assay: Forced swim test (FST)
Description: This is one of the most widely used tools for screening antidepressant activity pre-clinically in acute treatment. The test was first described by Porsolt et al., (Behavioral despair in mice: a primary screening test for antidepressants. Arch. Int. Pharmacodyn. Ther. 229, pp. 327-336, 1977). The FST test is based on the observation that rats and mice develop an immobile posture when placed in an inescapable cylinder of water. This behavior is considered a behavioral despair as opposed to active form of coping with stressful conditions. The FST test is considered a good screening tool with good reliability and predictive validity.
Three parameters were defined in the evaluation of FST:
1. Immobility—defined in the traditional Porsolt test as when no additional activity is observed other than that required to keep the animal's head above water;
2. Swimming behavior—being the movement (usually horizontal) throughout the chamber that also includes crossing into another quadrant;
3. Climbing behavior—being defined as the upward-directed movements (vertical) of the forepaws along the side of the swim chamber.
The test in mice was conducted acutely (60-90 minutes post oral drug administration) and animals were dropped to the cylinder for 6 minutes and scoring was performed in the last 4 minutes after 2 minutes of adaptation.
Round glass cylinders, 18 cm in diameter and 20 cm deep were used. Water temperature was 24-28° C. Four parameters were taken: immobility, velocity, distance and strong mobility. The immobility in the animals was defined by activity lower than 10% movement of the center of gravity of the animal. Swimming was defined by the distance and the velocity of the animal, and climbing was related to strong mobility (movement of center of gravidance more than 30%).
Males Balb/c mice (Harlan Israel) were used. Animals were administered orally with Compound 1 (10 or 20 mg/kg) or with a vehicle.
Males ICR mice were used.

[5] = ICR male mice, 10 and 20 mg/kg p.o. daily, 7 days
[6] = male Balb/c mice, 10 mg/kg oral, vs vehicle

## CNC(CN1CCN(C2=Nc3ccccc3Nc3sc(C)cc32)CC1)C(=O)OC (stereo not drawn) [Compound 6, 2-N-methylamino-3-[4-(2-methyl-10H-thieno[2,3-b][1.5]benzodiazepin-4-yl)-piperazin-1-yl]propionic acid, methyl ester trihydrochloride salt]
[1]; Balb/c mice, up to 12.5 mg/kg i.p. 1 hr prior to MK-801 (15 mg/kg) i.p.
  motility (distance moved) of MK-801 treated mice: did not cause a consistent dose dependent effect

## COC(=O)C(N)CN1CCN(C2=Nc3ccccc3Nc3sc(C)cc32)CC1 (stereo not drawn) [Compound 1, 2-amino-3-[4-(2-methyl-10H-thieno[2,3-b][1,5]benzodiazepin-4-yl)-piperazin-1-yl]-propionic acid, methyl ester hydrochloride salt]
Mice [2]
  catalepsy: did not induce catalepsy
[1]; Balb/c male mice, 50 mg/kg i.p.
  vertical motility (number of rearings), compound alone: markedly suppressed
[1]; Balb/c male mice, 50 mg/kg i.p. combined with MK-801 0.15 mg/kg i.p.
  inhibition of rearings presented by MK-801: increased
[1]; Balb/c male mice, 50 mg/kg i.p., MK-801 0.15 mg/kg i.p., open field 60 minutes
  basal and MK-801-induced stimulation of horizontal motility (distance moved, velocity, strong mobility): clear cut decrease
[1]; mice, 30 and 50 mg/kg i.p.
  hyperlocomotion effect of MK-801: inhibited in a dose related manner
  increased frequency to the center of animals treated with MK-801: did not modify
  time spent in the center (zone 3), MK-801 treated: increased
[3]; 20 mg/kg p.o.
  rearing behavior, compound alone compared to control animals: increased
[3]; 20 mg/kg p.o. 1 hr prior to amphetamine 2 mg/kg i.p.
  increase in head movements induced by amphetamine (stereotypic behavior): did not attenuate
[3]; 20 mg/kg p.o. 1 hr prior to amphetamine 2 mg/kg i.p., over 1 h
  hyperactivity induced by amphetamine (number of climbings and rearings): effective in antagonizing
ICR male mice; [5]
  animal general behavior: no apparent difference
  body weight compared to control animals: no difference
  food intake compared to control animals: no difference
  tolerability: well tolerated
  water intake compared to control animals: no difference
ICR male mice; up to 20 mg/kg given for 7 days
  toxic effect: did not cause toxic effect
Mice [4]; [6]
  distance moved (swimming behavior): significantly increased
  strong mobility (climbing behavior): significantly increased
Mice [4]; male Balb/c mice, 20 mg/kg oral, vs vehicle
  immobility: decreased
Mice [4]; male ICR mice, 20 mg/kg oral
  distance moved: did not modify
  immobility: significantly decreased
  strong mobility (climbing): significantly decreased
  velocity: did not modify
